Assay results published in publication doi:10.1101/2023.03.24.534094v2 (biorxiv, 2023).
Like-named read-outs stand apart in the source and are kept apart here.

What was measured:
MST1 = target: T1, MST1 (Homo sapiens, UniProt Q13043); assay: biochemical; settings: for ΔTm at 10 µM: read-out: dTm MST1
T1 sequence (Q13043 1-487): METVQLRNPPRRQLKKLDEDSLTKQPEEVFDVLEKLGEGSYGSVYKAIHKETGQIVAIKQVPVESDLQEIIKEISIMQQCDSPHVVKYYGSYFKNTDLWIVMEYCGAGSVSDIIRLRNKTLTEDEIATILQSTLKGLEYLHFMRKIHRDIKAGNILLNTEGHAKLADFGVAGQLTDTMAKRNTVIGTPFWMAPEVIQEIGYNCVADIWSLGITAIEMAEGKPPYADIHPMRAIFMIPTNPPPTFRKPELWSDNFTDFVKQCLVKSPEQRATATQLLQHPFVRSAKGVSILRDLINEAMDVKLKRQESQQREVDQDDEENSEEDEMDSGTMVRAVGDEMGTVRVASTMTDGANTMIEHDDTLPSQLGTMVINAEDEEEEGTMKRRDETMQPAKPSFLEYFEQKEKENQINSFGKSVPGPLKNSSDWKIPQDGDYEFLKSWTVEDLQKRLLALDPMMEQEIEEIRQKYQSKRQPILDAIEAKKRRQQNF

SIK3 = SIK3 (Homo sapiens, UniProt Q9Y2K2); assay: NanoBRET target engagement; type: cell-based; settings: intact mode, HEK293T, 37 °C, 2 h, tracer displacement
Sequence of SIK3 (Q9Y2K2 whole entry): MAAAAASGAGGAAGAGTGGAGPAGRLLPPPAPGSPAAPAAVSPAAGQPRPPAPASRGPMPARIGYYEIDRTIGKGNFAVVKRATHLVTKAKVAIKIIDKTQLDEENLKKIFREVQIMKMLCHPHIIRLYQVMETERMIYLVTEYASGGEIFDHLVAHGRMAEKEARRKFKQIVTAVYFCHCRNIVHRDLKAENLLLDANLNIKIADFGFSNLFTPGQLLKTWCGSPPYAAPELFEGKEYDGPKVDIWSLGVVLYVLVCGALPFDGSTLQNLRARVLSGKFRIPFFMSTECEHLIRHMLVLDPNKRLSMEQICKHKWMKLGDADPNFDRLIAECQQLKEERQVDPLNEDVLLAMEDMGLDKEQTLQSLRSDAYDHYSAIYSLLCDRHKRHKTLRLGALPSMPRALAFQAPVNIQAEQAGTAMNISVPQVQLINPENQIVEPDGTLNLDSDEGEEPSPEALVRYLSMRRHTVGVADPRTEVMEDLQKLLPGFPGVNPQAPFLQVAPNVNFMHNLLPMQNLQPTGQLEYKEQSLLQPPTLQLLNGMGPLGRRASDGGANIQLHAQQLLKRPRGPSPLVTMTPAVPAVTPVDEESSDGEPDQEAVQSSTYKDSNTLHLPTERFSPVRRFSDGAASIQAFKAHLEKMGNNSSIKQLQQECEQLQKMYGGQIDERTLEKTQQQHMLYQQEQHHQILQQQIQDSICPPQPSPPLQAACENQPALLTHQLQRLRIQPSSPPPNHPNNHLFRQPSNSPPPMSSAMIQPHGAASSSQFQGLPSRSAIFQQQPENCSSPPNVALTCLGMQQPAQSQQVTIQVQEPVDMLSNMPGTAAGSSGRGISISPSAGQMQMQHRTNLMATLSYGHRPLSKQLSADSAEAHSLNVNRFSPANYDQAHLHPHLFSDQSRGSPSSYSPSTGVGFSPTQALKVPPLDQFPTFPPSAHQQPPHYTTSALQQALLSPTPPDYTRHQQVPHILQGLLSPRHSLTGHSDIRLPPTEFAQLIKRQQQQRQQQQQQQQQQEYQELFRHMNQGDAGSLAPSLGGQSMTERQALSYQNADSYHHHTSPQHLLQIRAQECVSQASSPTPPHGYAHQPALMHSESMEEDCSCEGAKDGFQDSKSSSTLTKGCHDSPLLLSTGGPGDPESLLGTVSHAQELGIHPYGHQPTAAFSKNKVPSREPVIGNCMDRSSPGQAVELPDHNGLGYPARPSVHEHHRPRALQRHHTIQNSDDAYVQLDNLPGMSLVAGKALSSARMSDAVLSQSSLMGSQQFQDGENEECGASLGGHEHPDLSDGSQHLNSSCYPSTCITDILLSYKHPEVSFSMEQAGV

SIK2 = SIK2 (Homo sapiens, UniProt Q9H0K1); assay: NanoBRET target engagement; type: cell-based; settings: intact mode, HEK293T, 37 °C, 2 h, tracer displacement
Sequence of SIK2 (Q9H0K1 whole entry): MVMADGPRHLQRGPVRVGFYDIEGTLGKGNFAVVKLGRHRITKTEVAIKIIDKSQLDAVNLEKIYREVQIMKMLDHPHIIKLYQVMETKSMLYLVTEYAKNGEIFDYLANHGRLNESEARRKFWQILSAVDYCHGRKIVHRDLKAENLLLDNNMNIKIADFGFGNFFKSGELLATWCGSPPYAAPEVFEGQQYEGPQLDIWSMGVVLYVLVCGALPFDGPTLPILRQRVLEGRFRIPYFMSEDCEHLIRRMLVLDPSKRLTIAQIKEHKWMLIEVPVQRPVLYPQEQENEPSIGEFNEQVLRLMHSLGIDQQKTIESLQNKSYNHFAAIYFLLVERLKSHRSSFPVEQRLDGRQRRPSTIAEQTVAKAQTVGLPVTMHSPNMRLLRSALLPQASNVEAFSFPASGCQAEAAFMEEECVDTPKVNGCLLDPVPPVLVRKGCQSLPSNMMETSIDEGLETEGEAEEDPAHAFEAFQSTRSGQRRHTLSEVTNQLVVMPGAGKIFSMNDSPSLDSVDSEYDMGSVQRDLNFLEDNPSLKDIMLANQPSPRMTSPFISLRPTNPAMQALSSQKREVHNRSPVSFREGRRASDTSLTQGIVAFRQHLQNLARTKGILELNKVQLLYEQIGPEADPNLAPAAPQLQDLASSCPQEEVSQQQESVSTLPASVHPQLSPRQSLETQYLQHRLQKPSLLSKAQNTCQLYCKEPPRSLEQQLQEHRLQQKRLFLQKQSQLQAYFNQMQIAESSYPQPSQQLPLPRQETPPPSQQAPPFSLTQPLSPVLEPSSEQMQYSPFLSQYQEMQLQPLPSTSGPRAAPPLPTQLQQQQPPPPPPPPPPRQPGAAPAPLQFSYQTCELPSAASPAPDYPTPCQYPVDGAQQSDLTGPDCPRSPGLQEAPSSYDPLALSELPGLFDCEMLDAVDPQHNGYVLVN

MST2 = target: T2, MST2 (Homo sapiens, UniProt Q13188); assay: biochemical; settings: for ΔTm at 10 µM: read-out: dTm MST2
T2 sequence (Q13188 1-491): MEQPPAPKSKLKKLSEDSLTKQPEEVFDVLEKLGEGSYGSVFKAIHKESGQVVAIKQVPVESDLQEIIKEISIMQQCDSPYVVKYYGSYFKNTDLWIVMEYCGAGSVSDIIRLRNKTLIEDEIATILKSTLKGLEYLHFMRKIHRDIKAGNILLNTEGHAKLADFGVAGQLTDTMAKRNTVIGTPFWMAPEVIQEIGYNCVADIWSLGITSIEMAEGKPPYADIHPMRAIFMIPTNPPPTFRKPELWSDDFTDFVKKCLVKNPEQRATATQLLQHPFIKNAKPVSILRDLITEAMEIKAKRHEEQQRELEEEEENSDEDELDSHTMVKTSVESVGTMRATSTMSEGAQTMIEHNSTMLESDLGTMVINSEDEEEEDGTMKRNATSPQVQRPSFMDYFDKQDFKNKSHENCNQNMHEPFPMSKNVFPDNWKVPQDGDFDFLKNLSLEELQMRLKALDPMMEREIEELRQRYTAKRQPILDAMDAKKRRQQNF

SIK1 = SIK1 (Homo sapiens, UniProt P57059); assay: NanoBRET target engagement; type: biochemical; settings: lysed mode, HEK293T, tracer displacement
Sequence of SIK1 (P57059 whole entry): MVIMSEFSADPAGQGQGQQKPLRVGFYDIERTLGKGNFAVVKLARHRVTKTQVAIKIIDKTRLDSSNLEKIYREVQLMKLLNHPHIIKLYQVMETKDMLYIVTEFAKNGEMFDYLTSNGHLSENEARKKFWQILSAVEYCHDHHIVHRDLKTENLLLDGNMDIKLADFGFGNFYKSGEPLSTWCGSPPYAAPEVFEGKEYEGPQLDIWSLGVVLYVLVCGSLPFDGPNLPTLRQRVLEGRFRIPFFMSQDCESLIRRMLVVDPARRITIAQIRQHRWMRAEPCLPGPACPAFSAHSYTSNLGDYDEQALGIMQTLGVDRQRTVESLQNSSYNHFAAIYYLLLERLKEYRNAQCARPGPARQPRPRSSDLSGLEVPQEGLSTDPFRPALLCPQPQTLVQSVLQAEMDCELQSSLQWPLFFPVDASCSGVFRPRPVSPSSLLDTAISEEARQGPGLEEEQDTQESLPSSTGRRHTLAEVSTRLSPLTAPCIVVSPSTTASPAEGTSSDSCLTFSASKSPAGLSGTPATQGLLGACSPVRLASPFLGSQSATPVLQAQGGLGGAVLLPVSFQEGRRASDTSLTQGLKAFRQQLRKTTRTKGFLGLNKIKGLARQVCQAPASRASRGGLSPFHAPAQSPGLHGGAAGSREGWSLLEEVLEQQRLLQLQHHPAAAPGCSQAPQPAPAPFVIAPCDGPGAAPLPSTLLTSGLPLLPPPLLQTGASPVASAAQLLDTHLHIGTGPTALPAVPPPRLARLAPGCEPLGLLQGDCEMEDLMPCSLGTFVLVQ

FLT1 = FLT1 (Homo sapiens, UniProt P17948); assay: biochemical
Sequence of FLT1 (P17948 whole entry): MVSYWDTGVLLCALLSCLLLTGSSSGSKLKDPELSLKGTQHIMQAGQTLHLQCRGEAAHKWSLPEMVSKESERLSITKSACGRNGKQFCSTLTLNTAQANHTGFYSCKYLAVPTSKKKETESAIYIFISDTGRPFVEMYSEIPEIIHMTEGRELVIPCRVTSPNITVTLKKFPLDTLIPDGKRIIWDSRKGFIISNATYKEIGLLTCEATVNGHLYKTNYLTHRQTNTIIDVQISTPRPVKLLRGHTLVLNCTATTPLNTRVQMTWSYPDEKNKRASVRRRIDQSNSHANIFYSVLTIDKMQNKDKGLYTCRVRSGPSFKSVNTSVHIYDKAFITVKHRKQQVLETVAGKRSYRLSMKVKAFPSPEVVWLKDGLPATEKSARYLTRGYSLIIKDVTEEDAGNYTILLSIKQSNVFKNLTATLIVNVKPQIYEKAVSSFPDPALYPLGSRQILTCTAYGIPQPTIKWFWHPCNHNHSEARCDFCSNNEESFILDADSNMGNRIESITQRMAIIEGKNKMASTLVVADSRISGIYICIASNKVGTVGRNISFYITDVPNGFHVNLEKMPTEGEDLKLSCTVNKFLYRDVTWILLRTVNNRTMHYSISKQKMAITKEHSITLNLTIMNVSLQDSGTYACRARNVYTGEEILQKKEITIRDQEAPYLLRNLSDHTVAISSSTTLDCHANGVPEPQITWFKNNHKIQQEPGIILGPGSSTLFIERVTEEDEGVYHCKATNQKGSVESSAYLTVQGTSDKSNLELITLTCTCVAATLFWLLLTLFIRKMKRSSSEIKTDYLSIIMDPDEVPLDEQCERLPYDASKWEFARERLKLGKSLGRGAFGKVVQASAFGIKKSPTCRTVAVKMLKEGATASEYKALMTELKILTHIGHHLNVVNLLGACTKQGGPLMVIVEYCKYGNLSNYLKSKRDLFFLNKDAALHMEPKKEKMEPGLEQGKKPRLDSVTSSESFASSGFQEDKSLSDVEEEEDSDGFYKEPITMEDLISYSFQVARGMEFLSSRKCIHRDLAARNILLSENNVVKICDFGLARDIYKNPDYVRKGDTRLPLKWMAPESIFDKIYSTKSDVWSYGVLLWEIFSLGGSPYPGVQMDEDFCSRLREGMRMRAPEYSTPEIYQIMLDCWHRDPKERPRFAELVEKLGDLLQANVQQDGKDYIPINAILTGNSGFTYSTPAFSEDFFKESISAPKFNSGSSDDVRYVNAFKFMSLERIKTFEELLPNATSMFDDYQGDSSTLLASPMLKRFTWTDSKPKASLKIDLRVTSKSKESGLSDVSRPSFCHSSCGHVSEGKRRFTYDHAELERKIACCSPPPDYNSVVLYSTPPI

MST4 = MST4 (Homo sapiens, UniProt Q9P289); assay: biochemical; settings: for ΔTm at 10 µM: read-out: dTm MST4
Sequence of MST4 (Q9P289 whole entry): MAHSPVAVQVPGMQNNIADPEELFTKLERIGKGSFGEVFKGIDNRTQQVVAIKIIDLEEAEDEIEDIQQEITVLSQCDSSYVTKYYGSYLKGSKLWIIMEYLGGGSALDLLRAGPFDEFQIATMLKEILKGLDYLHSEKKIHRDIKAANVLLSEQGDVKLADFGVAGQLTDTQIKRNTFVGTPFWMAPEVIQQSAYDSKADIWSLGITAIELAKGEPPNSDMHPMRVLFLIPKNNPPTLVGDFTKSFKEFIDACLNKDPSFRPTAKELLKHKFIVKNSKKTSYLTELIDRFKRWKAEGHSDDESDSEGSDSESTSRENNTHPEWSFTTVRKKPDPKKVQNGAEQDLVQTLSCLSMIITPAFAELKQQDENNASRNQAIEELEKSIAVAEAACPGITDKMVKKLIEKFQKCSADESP

EpHB4 = target: T3, EpHB4 (Homo sapiens, UniProt P54760); assay: NanoBRET target engagement; type: cell-based
T3 sequence (P54760 16-987): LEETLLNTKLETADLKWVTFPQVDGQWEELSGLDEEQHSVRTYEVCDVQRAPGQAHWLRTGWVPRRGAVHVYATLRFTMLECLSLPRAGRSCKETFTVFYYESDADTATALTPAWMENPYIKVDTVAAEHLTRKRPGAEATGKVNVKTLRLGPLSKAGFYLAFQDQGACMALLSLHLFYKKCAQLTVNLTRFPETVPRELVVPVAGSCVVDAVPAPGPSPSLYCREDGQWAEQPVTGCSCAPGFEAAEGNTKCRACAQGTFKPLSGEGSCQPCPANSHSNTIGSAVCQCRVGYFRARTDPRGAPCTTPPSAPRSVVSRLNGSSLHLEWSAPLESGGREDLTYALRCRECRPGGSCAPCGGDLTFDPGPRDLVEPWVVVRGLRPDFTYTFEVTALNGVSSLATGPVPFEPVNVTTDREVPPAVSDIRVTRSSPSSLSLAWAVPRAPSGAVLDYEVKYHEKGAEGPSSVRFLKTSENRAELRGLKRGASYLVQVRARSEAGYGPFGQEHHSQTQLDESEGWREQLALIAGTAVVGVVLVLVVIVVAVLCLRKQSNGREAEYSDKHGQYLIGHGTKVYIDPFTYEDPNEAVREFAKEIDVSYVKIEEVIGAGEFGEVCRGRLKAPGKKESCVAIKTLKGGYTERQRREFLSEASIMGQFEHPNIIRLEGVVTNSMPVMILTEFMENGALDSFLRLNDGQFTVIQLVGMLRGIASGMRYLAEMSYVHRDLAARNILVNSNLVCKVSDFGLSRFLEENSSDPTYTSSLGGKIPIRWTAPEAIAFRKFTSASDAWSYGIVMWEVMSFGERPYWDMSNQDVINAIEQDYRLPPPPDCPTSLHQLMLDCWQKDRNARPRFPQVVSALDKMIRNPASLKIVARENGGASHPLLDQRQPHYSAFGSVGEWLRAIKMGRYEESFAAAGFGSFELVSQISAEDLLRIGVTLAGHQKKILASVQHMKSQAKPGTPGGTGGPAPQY

| ΔTm at 10 µM (MST1) [°C] | IC50 (SIK3) [µM] | IC50 (SIK2) [µM] | ΔTm at 10 µM (MST2) [°C] | IC50 (SIK1) [µM] | ΔTm at 10 µM (FLT1; read-out: dTm 8) [°C] | ΔTm at 10 µM (MST4) [°C] | IC50 (EpHB4) [µM] | ΔTm at 10 µM (FLT1; read-out: dTm 11) [°C] | IC50 (EpHB4; intact mode, HEK293T, 37 °C, 2 h, tracer displacement) [µM] | ΔTm at 10 µM (FLT1; read-out: dTm 9) [°C] | ΔTm at 10 µM (FLT1; read-out: dTm 10) [°C] | ΔTm at 10 µM (FLT1; read-out: dTm 12) [°C] | dTm MST1 (MST1; 10 µM, binder) [°C] | dTm MST2 (MST2; 10 µM, binder) [°C] | dTm MST4 (MST4; 10 µM, binder) [°C] | SMILES |
| --- | --- | --- | --- | --- | --- | --- | --- | --- | --- | --- | --- | --- | --- | --- | --- | --- |
| 1.6 | 0.113 ± 0.095 | 0.665 ± 0.04 | 1.4 | 0.277 ± 0.123 | 6 | 2 | 0.188 ± 0.017 |  |  |  |  |  |  |  |  | CNc1ncc2cc(-c3cc(Cl)ccc3Cl)c(=O)n(CCCCN)c2n1 [compound 8, 8-(4-Aminobutyl)-6-(2,5-dichlorophenyl)-2-(methylamino)pyrido[2,3-d]pyrimidin-7(8H)-one] |
| 1.6 | 1.2 ± 0.1 | 2.7 ± 0.1 | 1.4 | 0.429 ± 0.117 |  | 1.5 |  | 5.8 |  |  |  |  |  |  |  | CNc1ncc2cc(-c3cc(Br)ccc3Br)c(=O)n(CCCCN)c2n1 [compound 11, 8-(4-Aminobutyl)-6-(2,5-dibromophenyl)-2-(methylamino)pyrido[2,3-d]pyrimidin-7(8H)-one] |
| 1.9 | 0.352 ± 0.011 | 1.4 ± 0.1 | 2.5 | 0.239 ± 0.046 |  | 2.2 |  |  |  |  |  |  |  |  |  | CNc1ncc2cc(-c3cc(Br)ccc3Cl)c(=O)n(CCCCN)c2n1 [compound 6, 8-(4-Aminobutyl)-6-(5-bromo-2-chlorophenyl)-2-(methylamino)pyrido[2,3-d]pyrimidin-7(8H)-one] |
| 0.9 | 0.018 ± 0.002 | 0.089 ± 0.002 | 0.6 | 0.072 ± 0.011 |  | 0.9 |  |  | 0.607 ± 0.037 |  |  |  |  |  |  | CNc1ncc2cc(-c3cc(F)ccc3F)c(=O)n(CCCCN)c2n1 [compound 5, 8-(4-Aminobutyl)-6-(2,5-difluorophenyl)-2-(methylamino)pyrido[2,3-d]pyrimidin-7(8H)-one] |
| 1.5 | 0.29 ± 0.042 | 1.1 ± 0.1 | 1.4 | 0.228 ± 0.142 |  | 1.8 |  |  |  |  | 5 |  |  |  |  | CNc1ncc2cc(-c3cc(Cl)ccc3Br)c(=O)n(CCCCN)c2n1 [compound 10, 8-(4-Aminobutyl)-6-(2-bromo-5-chlorophenyl)-2-(methylamino)pyrido[2,3-d]pyrimidin-7(8H)-one] |

Further lines, the compound ahead of its results:

| SMILES | ΔTm at 10 µM (MST1) [°C] | IC50 (SIK3) [µM] | IC50 (SIK2) [µM] | ΔTm at 10 µM (MST2) [°C] | IC50 (SIK1) [µM] | ΔTm at 10 µM (FLT1; read-out: dTm 8) [°C] | ΔTm at 10 µM (MST4) [°C] | IC50 (EpHB4) [µM] | ΔTm at 10 µM (FLT1; read-out: dTm 11) [°C] | IC50 (EpHB4; intact mode, HEK293T, 37 °C, 2 h, tracer displacement) [µM] | ΔTm at 10 µM (FLT1; read-out: dTm 9) [°C] | ΔTm at 10 µM (FLT1; read-out: dTm 10) [°C] | ΔTm at 10 µM (FLT1; read-out: dTm 12) [°C] | dTm MST1 (MST1; 10 µM, binder) [°C] | dTm MST2 (MST2; 10 µM, binder) [°C] | dTm MST4 (MST4; 10 µM, binder) [°C] |
| --- | --- | --- | --- | --- | --- | --- | --- | --- | --- | --- | --- | --- | --- | --- | --- | --- |
| CNc1ncc2cc(-c3cc(Br)ccc3Cl)c(=O)n(C[C@H]3OC[C@H](N)CO3)c2n1 [compound 7, 8-(((2r,5r)-5-Amino-1,3-dioxan-2-yl)methyl)-6-(5-bromo-2-chlorophenyl)-2-(methylamino)pyrido[2,3-d]pyrimidin-7(8H)-one] | 1.7 | 1 ± 0.3 | 4.4 ± 0.1 | 1.5 | 2.4 ± 1.1 |  | 0.6 |  |  |  |  |  |  |  |  |  |
| CNc1ncc2cc(-c3cc(C(F)(F)F)ccc3Cl)c(=O)n(CCCCN)c2n1 [compound 9, 8-(4-Aminobutyl)-6-(2-chloro-5-(trifluoromethyl)phenyl)-2-(methylamino)pyrido[2,3-d]pyrimidin-7(8H)-one] | 0.9 | 2.5 ± 0.1 | 6.1 ± 0.1 | 0.8 | 1 ± 0.4 |  | 0.4 |  |  |  | 5.3 |  |  |  |  |  |
| CNc1ncc2cc(-c3cc(F)c(-c4cccc(C)n4)cc3F)c(=O)n(CCCCN)c2n1 [compound 12, 8-(4-Aminobutyl)-6-(2,5-difluoro-4-(6-methylpyridin-2-yl)phenyl)-2-(methylamino)pyrido[2,3-d]pyrimidin-7(8H)-one] | 2.8 | 0.004 ± 0.0001 | 0.031 ± 0.001 | 5.2 | 0.006 ± 0.002 |  | 7.6 |  |  |  |  |  | 2.8 |  |  |  |
| CNc1ncc2cc(-c3ccc(-c4cccc(C)n4)cc3Cl)c(=O)n(CC3OCC(N)CO3)c2n1 (centres unmarked) [compound 2, G-5555] |  |  |  |  |  |  |  |  |  |  |  |  |  | 4.2 | 5.0 | 6.4 |
| CNc1ncc2cc(-c3ccccc3Cl)c(=O)n(CCCCN)c2n1 [compound 4, 8-(4-Aminobutyl)-6-(2-chlorophenyl)-2-(methylamino)pyrido[2,3-d]pyrimidin-7(8H)-one] | 1.9 | 0.025 ± 0.003 | 0.074 ± 0.002 | 2.2 | 0.02 ± 0.007 |  | 2.6 | 0.05 ± 0.012 |  |  |  |  |  |  |  |  |
